Paper PMC8722715 (Frontiers in Cell and Developmental Biology, 2021)

Assays:
hNaV1.7 channel = biological target: T1, hNaV1.7 channel (Homo sapiens, UniProt Q15858); test: Automated patch-clamp block of hNaV1.7 peak Na+ current in CHO cells; assay type: cell-based; settings: for IC50: CHO cells stably expressing hNaV1.7, SyncroPatch 384 PE whole-cell, holding -100 mV, -10 mV test pulse 50 ms every 5 s, room temperature 18-22°C, 0.3% BSA, steady state or end of 15-min application, mean, S.E.M. and n cells; for hNaV1.7/hNaV1.6 selectivity ratio: inverse ratio of the mean IC50 values on hNaV1.7 (CHO) and hNaV1.6 (HEK-293) of Table 1; for hNaV1.7 IC50 versus WT: ratio of analogue mean IC50 to HwTx-IV WT mean IC50 on hNaV1.7
T1 construct: expressed in transfected cells
Procedure: (§1) CHO cells stably expressing the hNaV1.7 channel subtype were cultured in Dulbecco’s Modified Eagle’s Medium F-12 (DMEM/F12) supplemented with 10% fetal bovine serum, 2 mM glutamine, 200 μg/ml hygromycine B, 10 U/ml penicillin and 10 μg/ml streptomycin (Gibco, Grand Island, NY). HEK-293 cells stably expressing the hNaV1.6 channel subtype were cultured in Dulbecco’s Modified Eagle’s Medium (DMEM) supplemented with 10% fetal calf serum, 1 mM pyruvic acid, 4.5 g/L glucose, 2 mM glutamine, 800 μg/ml G418, 10 U/ml penicillin and 10 μg/ml streptomycin (Gibco, Grand Island, NY). All cell lines were incubated at 37°C in a 5% CO2 atmosphere. For electrophysiological recordings, cells were detached with trypsin, and floating single cells were diluted (∼300,000 cells/ml) in an extracellular solution containing (in mM): 140 NaCl, 4 KCl, 2 CaCl2, 1 MgCl2, 5 glucose and 10 HEPES (pH 7.4, osmolarity 298 mOsm), that was used throughout the experiments.
HwTx-IV analogues were investigated on CHO cells expressing hNav1.7 channel and HEK-293 cells expressing hNaV1.6 channel using the automated patch-clamp system from Nanion (SyncroPatch 384 PE; München, Germany). Chips with single-hole and high-resistance (∼6–7 MΩ) were used for both cell lines. Voltage pulses and whole-cell recordings were achieved using the PatchControl384 v1.5.2 software (Nanion) and the Biomek v1.0 interface (Beckman Coulter). Prior to recordings, dissociated cells were shaken at 200 RPM in a cell hotel reservoir at 10°C. After cell catching, sealing, whole-cell formation, liquid application, recording, and data acquisition were all performed sequentially and automatically. The intracellular solution contained (in mM): 110 CsF, 10 CsCl, 10 NaCl, 1 MgCl2, 1 CaCl2, 10 EGTA and 10 HEPES (pH 7.2, osmolarity 280 mOsm), and the extracellular solution was as described above. Whole-cell experiments were done at −100 mV holding potential and at room temperature (18–22°C), while currents triggered at either −10 or 0 mV test potential were sampled at 20 kHz. Stimulation frequency was set at 0.2 Hz. Each HwTx-IV analogue was prepared at various concentrations in the extracellular solution, itself supplemented with 0.3% of bovine serum albumin (BSA), also added in the control solution. […] Compound solutions were diluted 3 times in the patch-clamp recording well by adding 30–60 μl external solution, to reach the final reported concentration and the test volume of 90 μl. For establishing dose-response curves, the compounds were tested at a test potential of either −10 or 0 mV for 50 ms with a pulse every 5 s. Percentages of current inhibition were measured at steady-state of blockage or at the end of a 15-min application time.

hNaV1.6 channel = biological target: T2, hNaV1.6 channel (Homo sapiens, UniProt Q9UQD0); test: Automated patch-clamp block of hNaV1.6 peak Na+ current in HEK-293 cells; assay type: cell-based; settings: for IC50: HEK-293 cells stably expressing hNaV1.6, SyncroPatch 384 PE whole-cell, holding -100 mV, 0 mV test pulse 50 ms every 5 s, room temperature 18-22°C, 0.3% BSA, steady state or end of 15-min application, mean, S.E.M. and n cells; for hNaV1.6 IC50 versus WT: ratio of analogue mean IC50 to HwTx-IV WT mean IC50 on hNaV1.6
T2 construct: expressed in transfected cells
Procedure: as §1
HwTx-IV analogues were investigated on CHO cells expressing hNav1.7 channel and HEK-293 cells expressing hNaV1.6 channel using the automated patch-clamp system from Nanion (SyncroPatch 384 PE; München, Germany). Chips with single-hole and high-resistance (∼6–7 MΩ) were used for both cell lines. Voltage pulses and whole-cell recordings were achieved using the PatchControl384 v1.5.2 software (Nanion) and the Biomek v1.0 interface (Beckman Coulter). Prior to recordings, dissociated cells were shaken at 200 RPM in a cell hotel reservoir at 10°C. After cell catching, sealing, whole-cell formation, liquid application, recording, and data acquisition were all performed sequentially and automatically. The intracellular solution contained (in mM): 110 CsF, 10 CsCl, 10 NaCl, 1 MgCl2, 1 CaCl2, 10 EGTA and 10 HEPES (pH 7.2, osmolarity 280 mOsm), and the extracellular solution was as described above. Whole-cell experiments were done at −100 mV holding potential and at room temperature (18–22°C), while currents triggered at either −10 or 0 mV test potential were sampled at 20 kHz. Stimulation frequency was set at 0.2 Hz. Each HwTx-IV analogue was prepared at various concentrations in the extracellular solution, itself supplemented with 0.3% of bovine serum albumin (BSA), also added in the control solution. The peptides were distributed in 384-well microplates according to the number of compounds to be tested (generally four), the concentration range defined from the IC50 of wild-type HwTx-IV, and the number of cells desired for each experimental condition. Compound solutions were diluted 3 times in the patch-clamp recording well by adding 30–60 μl external solution, to reach the final reported concentration and the test volume of 90 μl. For establishing dose-response curves, the compounds were tested at a test potential of either −10 or 0 mV for 50 ms with a pulse every 5 s. Percentages of current inhibition were measured at steady-state of blockage or at the end of a 15-min application time.

T1 sequence (Q15858 whole entry): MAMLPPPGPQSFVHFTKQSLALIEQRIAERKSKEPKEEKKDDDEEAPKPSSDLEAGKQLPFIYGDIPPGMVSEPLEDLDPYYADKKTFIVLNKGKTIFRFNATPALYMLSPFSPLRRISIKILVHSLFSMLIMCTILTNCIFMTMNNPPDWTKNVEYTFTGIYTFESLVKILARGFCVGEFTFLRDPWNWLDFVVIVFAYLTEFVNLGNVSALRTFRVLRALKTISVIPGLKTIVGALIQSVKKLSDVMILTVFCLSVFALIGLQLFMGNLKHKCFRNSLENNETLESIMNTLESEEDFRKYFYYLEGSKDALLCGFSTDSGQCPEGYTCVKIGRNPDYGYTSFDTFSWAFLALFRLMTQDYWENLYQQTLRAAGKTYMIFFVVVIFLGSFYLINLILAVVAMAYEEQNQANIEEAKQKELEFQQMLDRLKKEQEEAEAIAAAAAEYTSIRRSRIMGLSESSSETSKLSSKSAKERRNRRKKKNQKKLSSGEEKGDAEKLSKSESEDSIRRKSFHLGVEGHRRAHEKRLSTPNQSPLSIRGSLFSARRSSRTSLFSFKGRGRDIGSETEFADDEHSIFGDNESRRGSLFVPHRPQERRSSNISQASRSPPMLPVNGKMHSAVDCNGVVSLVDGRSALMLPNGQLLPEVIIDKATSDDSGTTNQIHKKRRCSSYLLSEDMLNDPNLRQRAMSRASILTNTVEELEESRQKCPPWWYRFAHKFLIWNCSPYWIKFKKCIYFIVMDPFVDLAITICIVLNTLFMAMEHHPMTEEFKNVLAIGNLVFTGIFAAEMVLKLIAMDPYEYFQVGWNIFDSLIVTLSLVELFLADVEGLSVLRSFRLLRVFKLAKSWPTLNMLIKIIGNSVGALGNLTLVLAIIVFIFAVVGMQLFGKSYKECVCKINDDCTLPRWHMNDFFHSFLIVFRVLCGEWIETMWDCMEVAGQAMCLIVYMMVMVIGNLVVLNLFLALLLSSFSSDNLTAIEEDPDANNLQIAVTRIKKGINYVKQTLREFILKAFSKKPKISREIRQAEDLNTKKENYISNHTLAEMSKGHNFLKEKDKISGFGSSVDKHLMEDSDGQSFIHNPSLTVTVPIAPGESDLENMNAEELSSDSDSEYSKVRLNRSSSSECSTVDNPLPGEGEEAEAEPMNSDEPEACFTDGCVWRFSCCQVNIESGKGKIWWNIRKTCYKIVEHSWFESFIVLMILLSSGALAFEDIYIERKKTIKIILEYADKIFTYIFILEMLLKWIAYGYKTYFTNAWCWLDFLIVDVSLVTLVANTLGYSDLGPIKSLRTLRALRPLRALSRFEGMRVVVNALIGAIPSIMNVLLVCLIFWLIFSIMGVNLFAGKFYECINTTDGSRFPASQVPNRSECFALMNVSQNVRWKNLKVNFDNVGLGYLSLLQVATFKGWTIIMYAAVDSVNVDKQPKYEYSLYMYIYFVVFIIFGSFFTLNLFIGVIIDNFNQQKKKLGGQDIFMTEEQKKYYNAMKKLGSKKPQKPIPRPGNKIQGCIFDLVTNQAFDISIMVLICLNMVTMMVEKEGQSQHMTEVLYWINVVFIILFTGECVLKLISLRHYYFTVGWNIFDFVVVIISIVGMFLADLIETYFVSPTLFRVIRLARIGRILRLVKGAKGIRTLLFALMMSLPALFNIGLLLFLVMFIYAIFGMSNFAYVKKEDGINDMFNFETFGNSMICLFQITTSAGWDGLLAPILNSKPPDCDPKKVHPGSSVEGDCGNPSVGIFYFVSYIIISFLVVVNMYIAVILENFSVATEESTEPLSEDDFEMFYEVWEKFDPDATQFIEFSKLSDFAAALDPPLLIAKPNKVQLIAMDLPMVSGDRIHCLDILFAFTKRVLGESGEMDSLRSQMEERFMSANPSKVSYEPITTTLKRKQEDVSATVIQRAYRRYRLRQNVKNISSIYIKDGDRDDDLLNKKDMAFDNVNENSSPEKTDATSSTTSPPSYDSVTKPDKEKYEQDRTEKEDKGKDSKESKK
T2 sequence (Q9UQD0 whole entry): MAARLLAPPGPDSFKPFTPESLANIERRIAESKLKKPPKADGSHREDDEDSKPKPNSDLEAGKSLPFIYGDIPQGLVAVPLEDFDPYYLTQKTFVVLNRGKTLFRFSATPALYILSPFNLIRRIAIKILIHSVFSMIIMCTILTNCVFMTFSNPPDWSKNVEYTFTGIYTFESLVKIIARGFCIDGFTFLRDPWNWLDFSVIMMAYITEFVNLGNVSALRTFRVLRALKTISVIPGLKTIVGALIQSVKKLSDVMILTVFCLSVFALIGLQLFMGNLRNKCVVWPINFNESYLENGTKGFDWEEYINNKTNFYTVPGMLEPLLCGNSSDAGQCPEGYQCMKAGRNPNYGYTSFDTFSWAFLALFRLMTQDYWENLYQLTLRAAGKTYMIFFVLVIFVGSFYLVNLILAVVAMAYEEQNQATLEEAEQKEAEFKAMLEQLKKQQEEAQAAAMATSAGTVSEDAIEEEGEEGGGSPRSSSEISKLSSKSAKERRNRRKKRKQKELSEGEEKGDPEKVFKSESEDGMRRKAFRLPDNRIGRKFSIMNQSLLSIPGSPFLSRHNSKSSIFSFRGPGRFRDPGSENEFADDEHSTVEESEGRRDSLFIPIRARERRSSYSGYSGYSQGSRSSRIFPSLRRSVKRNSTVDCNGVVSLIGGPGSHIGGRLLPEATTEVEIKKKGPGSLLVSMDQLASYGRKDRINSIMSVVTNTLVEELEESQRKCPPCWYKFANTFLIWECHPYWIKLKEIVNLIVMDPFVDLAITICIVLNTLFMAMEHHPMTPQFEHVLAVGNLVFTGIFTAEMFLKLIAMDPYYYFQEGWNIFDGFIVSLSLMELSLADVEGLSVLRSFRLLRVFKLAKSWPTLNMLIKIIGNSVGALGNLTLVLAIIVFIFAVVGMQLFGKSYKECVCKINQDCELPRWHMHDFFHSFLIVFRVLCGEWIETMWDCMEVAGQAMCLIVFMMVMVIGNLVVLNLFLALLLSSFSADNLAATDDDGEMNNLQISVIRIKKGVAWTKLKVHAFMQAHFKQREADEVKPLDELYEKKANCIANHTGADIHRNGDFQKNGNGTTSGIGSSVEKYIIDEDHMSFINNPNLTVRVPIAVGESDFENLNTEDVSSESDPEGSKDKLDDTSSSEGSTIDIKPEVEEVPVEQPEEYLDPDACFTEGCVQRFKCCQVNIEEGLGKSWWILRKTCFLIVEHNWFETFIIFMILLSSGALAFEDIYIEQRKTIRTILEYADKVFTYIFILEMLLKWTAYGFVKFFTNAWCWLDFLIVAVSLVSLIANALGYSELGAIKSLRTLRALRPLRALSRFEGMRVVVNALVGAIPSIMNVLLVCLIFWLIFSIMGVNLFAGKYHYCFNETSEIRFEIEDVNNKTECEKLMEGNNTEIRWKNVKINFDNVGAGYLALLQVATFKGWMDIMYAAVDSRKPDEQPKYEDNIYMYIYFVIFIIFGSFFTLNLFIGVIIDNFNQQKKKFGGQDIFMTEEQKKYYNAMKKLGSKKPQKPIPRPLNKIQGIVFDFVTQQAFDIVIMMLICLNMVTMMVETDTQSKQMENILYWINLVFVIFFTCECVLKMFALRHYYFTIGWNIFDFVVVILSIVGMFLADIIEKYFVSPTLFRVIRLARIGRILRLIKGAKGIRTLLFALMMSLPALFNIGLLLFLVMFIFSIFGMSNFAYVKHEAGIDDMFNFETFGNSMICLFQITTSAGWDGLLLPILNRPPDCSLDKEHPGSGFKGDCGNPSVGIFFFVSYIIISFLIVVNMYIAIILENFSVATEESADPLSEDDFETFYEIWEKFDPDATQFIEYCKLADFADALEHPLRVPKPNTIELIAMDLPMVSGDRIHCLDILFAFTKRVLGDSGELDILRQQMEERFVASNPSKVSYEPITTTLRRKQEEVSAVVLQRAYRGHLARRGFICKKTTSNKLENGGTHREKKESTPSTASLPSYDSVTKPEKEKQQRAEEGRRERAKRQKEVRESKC

SMILES	IC50 (hNaV1.7 channel) [nM]	hNaV1.7/hNaV1.6 selectivity ratio (hNaV1.7 channel)	hNaV1.7 IC50 versus WT (hNaV1.7 channel)	IC50 (hNaV1.6 channel) [nM]	hNaV1.6 IC50 versus WT (hNaV1.6 channel)
CC[C@H](C)[C@H](NC(=O)[C@H](CCC(N)=O)NC(=O)[C@H](Cc1ccc(O)cc1)NC(=O)[C@H](CCCCN)NC(=O)[C@@H]1CSSC[C@@H]2NC(=O)[C@H](CCC(N)=O)NC(=O)[C@H](CC(=O)O)NC(=O)[C@H](CC(N)=O)NC(=O)[C@H](CO)NC(=O)[C@@H]3CCCN3C(=O)[C@H](CC(N)=O)NC(=O)[C@@H]3CSSC[C@H](NC(=O)[C@H](C(C)C)NC(=O)[C@H](CC(C)C)NC(=O)[C@H](CCCCN)NC(=O)[C@H](CO)NC(=O)[C@H](CO)NC(=O)[C@H](CCCCN)NC(=O)[C@H](CSSC[C@H](NC(=O)[C@@H](N)CCC(=O)O)C(=O)N[C@@H](CC(C)C)C(=O)N[C@@H](CCCCN)C(=O)N[C@@H]([C@@H](C)CC)C(=O)N[C@@H](Cc4ccccc4)C(=O)N[C@@H](CCCCN)C(=O)N[C@@H](C)C(=O)N3)NC2=O)C(=O)N[C@@H](CO)C(=O)N[C@@H](CCC(N)=O)C(=O)N[C@@H](CCCCN)C(=O)N[C@@H]([C@@H](C)O)C(=O)N[C@@H](CCCNC(=N)N)C(=O)N[C@@H](Cc2c[nH]c3ccccc23)C(=O)N1)C(N)=O [HwTx-IV E^4K/R ^26Q]	3.6	less than 2	0.36	3.4	0.02
CC[C@H](C)[C@H](NC(=O)[C@H](CCC(N)=O)NC(=O)[C@H](Cc1ccc(O)cc1)NC(=O)[C@H](CC(N)=O)NC(=O)[C@@H]1CSSC[C@@H]2NC(=O)[C@H](CCC(N)=O)NC(=O)[C@H](CC(=O)O)NC(=O)[C@H](CC(N)=O)NC(=O)[C@H](CO)NC(=O)[C@@H]3CCCN3C(=O)[C@H](CC(N)=O)NC(=O)[C@@H]3CSSC[C@H](NC(=O)[C@H](C(C)C)NC(=O)[C@H](CC(C)C)NC(=O)[C@H](CCCCN)NC(=O)[C@H](CO)NC(=O)[C@H](CO)NC(=O)[C@H](CCCCN)NC(=O)[C@H](CSSC[C@H](NC(=O)[C@@H](N)CCC(=O)O)C(=O)N[C@@H](CC(C)C)C(=O)N[C@@H](CCCNC(=N)N)C(=O)N[C@@H]([C@@H](C)CC)C(=O)N[C@@H](Cc4ccccc4)C(=O)N[C@@H](CCCCN)C(=O)N[C@@H](C)C(=O)N3)NC2=O)C(=O)N[C@@H](CO)C(=O)N[C@@H](CCCNC(=N)N)C(=O)N[C@@H](CCCCN)C(=O)N[C@@H]([C@@H](C)O)C(=O)N[C@@H](CCCNC(=N)N)C(=O)N[C@@H](Cc2c[nH]c3ccccc23)C(=O)N1)C(N)=O [HwTx-IV E^4R/K^32N]	> 1000		>101	> 333	>1.5
CC[C@H](C)[C@H](NC(=O)[C@H](CCC(N)=O)NC(=O)[C@H](Cc1ccc(O)cc1)NC(=O)[C@H](CCCCN)NC(=O)[C@@H]1CSSC[C@@H]2NC(=O)[C@H](CCC(N)=O)NC(=O)[C@H](CC(=O)O)NC(=O)[C@H](CC(N)=O)NC(=O)[C@H](CO)NC(=O)[C@@H]3CCCN3C(=O)[C@H](CC(N)=O)NC(=O)[C@@H]3CSSC[C@H](NC(=O)[C@H](C(C)C)NC(=O)[C@H](CC(C)C)NC(=O)[C@H](CCCCN)NC(=O)[C@H](CO)NC(=O)[C@H](CO)NC(=O)[C@H](C)NC(=O)[C@H](CSSC[C@H](NC(=O)[C@@H](N)CCC(=O)O)C(=O)N[C@@H](CC(C)C)C(=O)N[C@@H](CCC(=O)O)C(=O)N[C@@H]([C@@H](C)CC)C(=O)N[C@@H](Cc4ccccc4)C(=O)N[C@@H](CCCCN)C(=O)N[C@@H](C)C(=O)N3)NC2=O)C(=O)N[C@@H](CO)C(=O)N[C@@H](CCCNC(=N)N)C(=O)N[C@@H](CCCCN)C(=O)N[C@@H]([C@@H](C)O)C(=O)N[C@@H](CCCNC(=N)N)C(=O)N[C@@H](Cc2c[nH]c3ccccc23)C(=O)N1)C(N)=O [HwTx-IV K^18A]	6.4	above 46	0.65	416	1.84
CC[C@H](C)[C@H](NC(=O)[C@H](CCC(N)=O)NC(=O)[C@H](Cc1ccc(O)cc1)NC(=O)[C@H](CC(N)=O)NC(=O)[C@@H]1CSSC[C@@H]2NC(=O)[C@H](CCC(N)=O)NC(=O)[C@H](CC(=O)O)NC(=O)[C@H](CC(N)=O)NC(=O)[C@H](CO)NC(=O)[C@@H]3CCCN3C(=O)[C@H](CC(N)=O)NC(=O)[C@@H]3CSSC[C@H](NC(=O)[C@H](C(C)C)NC(=O)[C@H](CC(C)C)NC(=O)[C@H](CCCCN)NC(=O)[C@H](CO)NC(=O)[C@H](CO)NC(=O)[C@H](CCCCN)NC(=O)[C@H](CSSC[C@H](NC(=O)[C@@H](N)CCC(=O)O)C(=O)N[C@@H](CC(C)C)C(=O)N[C@@H](CCC(=O)O)C(=O)N[C@@H]([C@@H](C)CC)C(=O)N[C@@H](Cc4ccccc4)C(=O)N[C@@H](CCCCN)C(=O)N[C@@H](C)C(=O)N3)NC2=O)C(=O)N[C@@H](CO)C(=O)N[C@@H](CCCNC(=N)N)C(=O)N[C@@H](CCCCN)C(=O)N[C@@H]([C@@H](C)O)C(=O)N[C@@H](CCCNC(=N)N)C(=O)N[C@@H](Cc2c[nH]c3ccccc23)C(=O)N1)C(N)=O [HwTx-IV K^32N]	5750		581	> 1000	>4.4
CC[C@H](C)[C@H](NC(=O)[C@H](CCC(N)=O)NC(=O)[C@H](Cc1ccc(O)cc1)NC(=O)[C@H](CCCCN)NC(=O)[C@@H]1CSSC[C@@H]2NC(=O)[C@H](CCC(N)=O)NC(=O)[C@H](CC(=O)O)NC(=O)[C@H](CC(N)=O)NC(=O)[C@H](CO)NC(=O)[C@@H]3CCCN3C(=O)[C@H](CC(N)=O)NC(=O)[C@@H]3CSSC[C@H](NC(=O)[C@H](C(C)C)NC(=O)[C@H](CC(C)C)NC(=O)[C@H](CCCCN)NC(=O)[C@H](CO)NC(=O)[C@H](CO)NC(=O)[C@H](CCCCN)NC(=O)[C@H](CSSC[C@H](NC(=O)[C@@H](N)CCC(=O)O)C(=O)N[C@@H](CC(C)C)C(=O)N[C@@H](CCC(=O)O)C(=O)N[C@@H]([C@@H](C)CC)C(=O)N[C@@H](Cc4ccccc4)C(=O)N[C@@H](CCCCN)C(=O)N[C@@H](C)C(=O)N3)NC2=O)C(=O)N[C@@H](CO)C(=O)N[C@@H](CCCNC(=N)N)C(=O)N[C@@H](CCCCN)C(=O)N[C@@H]([C@@H](C)O)C(=O)N[C@@H](CCCNC(=N)N)C(=O)N[C@@H](Cc2c[nH]c3ccccc23)C(=O)N1)C(=O)N[C@@H](CCCCN)C(=O)O [HwTx-IV K^36/CterCOOH]	29	above 46	2.93	1330	5.89
